pIC50, pKi: −log10 of the molar value.
What was measured:
[1] = test system: Rattus norvegicus; assay: Effect on behavioural activity in rat assessed as cocaine-induced lever response at 100 mg/kg, ip pretreated with cocaine for 335 mins by drug-discrimination studies; format: functional; details: route intraperitoneal
[2] = test system: Mus musculus; assay: Antidepressant activity in ip dosed mouse assessed as stimulation of locomotor activity relative to cocaine; format: functional
[3] = test system: Mus musculus; assay: Antidepressant activity in ip dosed mouse assessed as stimulation of locomotor activity; format: functional
[4] = test system: Rattus norvegicus; assay: Effect on behavioural activity in rat assessed as cocaine-induced lever response at 50 mg/kg, ip pretreated with cocaine for 335 mins by drug-discrimination studies; format: functional; details: route intraperitoneal
[5] = test system: Rattus norvegicus; assay: Effect on behavioural activity in rat assessed as cocaine-induced lever response at 10 mg/kg, ip pretreated with cocaine for 335 mins by drug-discrimination studies; format: functional; details: route intraperitoneal
[6] = test system: Mus musculus; assay: Antidepressant activity in ip dosed mouse assessed as duration of locomotor activity; format: functional
[7] = test system: Mus musculus; assay: Antidepressant activity in ip dosed mouse assessed as time to reach peak stimulation of locomotor activity; format: functional
[8] = test system: Rattus norvegicus; assay: Effect on behavioural activity in rat assessed as cocaine-induced lever response at 25 mg/kg, ip pretreated with cocaine for 335 mins by drug-discrimination studies; format: functional; details: route intraperitoneal
[9] = test system: Rattus norvegicus; assay: Effect on behavioural activity in rat assessed as cocaine-induced lever response at 10 mg/kg, ip pretreated with cocaine for 60 mins by drug-discrimination studies; format: functional; details: route intraperitoneal
[10] = biological target: T1, Sodium-dependent noradrenaline transporter (Homo sapiens, UniProt P23975); assay: Inhibition of [3H]norepinephrine reuptake at human NET expressed in HEK293 cells; format: cell-based
[11] = biological target: T1, Sodium-dependent noradrenaline transporter; assay: Displacement of [125I]RTI55 from cloned human NET expressed in HEK293 cells; format: cell-based
[12] = biological target: T2, Sodium-dependent serotonin transporter (Homo sapiens, UniProt P31645); assay: Inhibition of [3H]serotonin reuptake at human SERT expressed in HEK293 cells; format: cell-based
[13] = test system: Rattus norvegicus; assay: Effect on behavioural activity in rat assessed as cocaine-induced lever response at 25 mg/kg, ip pretreated with cocaine for 60 mins by drug-discrimination studies; format: functional; details: route intraperitoneal
[14] = biological target: T3, Sodium-dependent dopamine transporter (Homo sapiens, UniProt Q01959); assay: Displacement of [125I]RTI55 from cloned human DAT expressed in HEK293 cells; format: cell-based
[15] = test system: Rattus norvegicus; assay: Effect on behavioural activity in rat assessed as cocaine-induced lever response at 5 mg/kg, ip pretreated with cocaine for 60 mins by drug-discrimination studies; format: functional; details: route intraperitoneal
[16] = biological target: T3, Sodium-dependent dopamine transporter; assay: Inhibition of [3H]dopamine reuptake at human DAT expressed in HEK293 cells; format: cell-based
[17] = test system: Rattus norvegicus; assay: Toxicity in rat assessed as adverse effects at 50 mg/kg, ip; format: organism-based; set-up: dose 50 mg/kg, route intraperitoneal; details: in vivo
[18] = biological target: T2, Sodium-dependent serotonin transporter; assay: biochemical; format: cell-based, HEK293
[19] = test system: Rattus norvegicus; assay: Effect on behavioural activity in rat assessed as cocaine-induced lever response at 25 mg/kg, ip pretreated with cocaine for 240 mins by drug-discrimination studies; format: functional; details: route intraperitoneal
[20] = test system: Rattus norvegicus; assay: Effect on behavioural activity in rat assessed as cocaine-induced lever response at 50 mg/kg, ip pretreated with cocaine for 240 mins by drug-discrimination studies; format: functional; details: route intraperitoneal
[21] = test system: Rattus norvegicus; assay: Effect on behavioural activity in po dosed rat assessed as cocaine-induced lever response pretreated with cocaine by drug-discrimination studies; format: functional
[22] = test system: Rattus norvegicus; assay: Effect on behavioural activity in rat assessed as cocaine-induced lever response at 25 mg/kg, po pretreated with cocaine for 90 mins by drug-discrimination studies; format: functional
[23] = test system: Rattus norvegicus; assay: Effect on behavioural activity in rat assessed as cocaine-induced lever response at 10 mg/kg, ip pretreated with cocaine for 30 mins by drug-discrimination studies; format: functional; details: route intraperitoneal
[24] = test system: Rattus norvegicus; assay: Effect on behavioural activity in rat assessed as cocaine-induced lever response at 10 mg/kg, po pretreated with cocaine for 45 mins by drug-discrimination studies; format: functional
[25] = test system: Rattus norvegicus; assay: Effect on behavioural activity in rat assessed as cocaine-induced lever response at 5 mg/kg, po pretreated with cocaine for 180 mins by drug-discrimination studies; format: functional
[26] = test system: Rattus norvegicus; assay: Effect on behavioural activity in rat assessed as cocaine-induced lever response at 25 mg/kg, po pretreated with cocaine for 180 mins by drug-discrimination studies; format: functional
[27] = test system: Rattus norvegicus; assay: Effect on behavioural activity in rat assessed as cocaine-induced lever response at 50 mg/kg, po pretreated with cocaine for 360 mins by drug-discrimination studies; format: functional
[28] = test system: Rattus norvegicus; assay: Effect on behavioural activity in rat assessed as cocaine-induced lever response at 5 mg/kg, po pretreated with cocaine for 360 mins by drug-discrimination studies; format: functional
[29] = test system: Rattus norvegicus; assay: Effect on behavioural activity in rat assessed as cocaine-induced lever response at 5 mg/kg, po pretreated with cocaine for 90 mins by drug-discrimination studies; format: functional
[30] = test system: Rattus norvegicus; assay: Effect on behavioural activity in rat assessed as cocaine-induced lever response at 2.5 mg/kg, po pretreated with cocaine for 180 mins by drug-discrimination studies; format: functional
[31] = test system: Rattus norvegicus; assay: Effect on behavioural activity in rat assessed as cocaine-induced lever response at 100 mg/kg, po pretreated with cocaine for 90 mins by drug-discrimination studies; format: functional
[32] = test system: Rattus norvegicus; assay: Effect on behavioural activity in rat assessed as cocaine-induced lever response at 50 mg/kg, po pretreated with cocaine for 180 mins by drug-discrimination studies; format: functional
[33] = test system: Rattus norvegicus; assay: Effect on behavioural activity in rat assessed as cocaine-induced lever response at 10 mg/kg, po pretreated with cocaine for 360 mins by drug-discrimination studies; format: functional
[34] = test system: Rattus norvegicus; assay: Effect on behavioural activity in rat assessed as cocaine-induced lever response at 100 mg/kg, po pretreated with cocaine for 180 mins by drug-discrimination studies; format: functional
[35] = test system: Rattus norvegicus; assay: Effect on behavioural activity in rat assessed as cocaine-induced lever response at 2.5 mg/kg, po pretreated with cocaine for 45 mins by drug-discrimination studies; format: functional
[36] = test system: Rattus norvegicus; assay: Effect on behavioural activity in rat assessed as cocaine-induced lever response at 2.5 mg/kg, po pretreated with cocaine for 360 mins by drug-discrimination studies; format: functional
[37] = test system: Rattus norvegicus; assay: Effect on behavioural activity in rat assessed as cocaine-induced lever response at 25 mg/kg, po pretreated with cocaine for 360 mins by drug-discrimination studies; format: functional
[38] = test system: Rattus norvegicus; assay: Effect on behavioural activity in rat assessed as cocaine-induced lever response at 2.5 mg/kg, po pretreated with cocaine for 90 mins by drug-discrimination studies; format: functional
[39] = test system: Rattus norvegicus; assay: Effect on behavioural activity in rat assessed as cocaine-induced lever response at 50 mg/kg, po pretreated with cocaine for 45 mins by drug-discrimination studies; format: functional
[40] = test system: Rattus norvegicus; assay: Effect on behavioural activity in rat assessed as cocaine-induced lever response at 25 mg/kg, po pretreated with cocaine for 45 mins by drug-discrimination studies; format: functional
[41] = test system: Rattus norvegicus; assay: Effect on behavioural activity in rat assessed as cocaine-induced lever response at 100 mg/kg, po pretreated with cocaine for 45 mins by drug-discrimination studies; format: functional
[42] = test system: Rattus norvegicus; assay: Effect on behavioural activity in rat assessed as cocaine-induced lever response at 10 mg/kg, po pretreated with cocaine for 90 mins by drug-discrimination studies; format: functional
[43] = test system: Rattus norvegicus; assay: Effect on behavioural activity in rat assessed as cocaine-induced lever response at 10 mg/kg, po pretreated with cocaine for 180 mins by drug-discrimination studies; format: functional
[44] = test system: Rattus norvegicus; assay: Effect on behavioural activity in rat assessed as cocaine-induced lever response at 50 mg/kg, ip pretreated with cocaine for 30 mins by drug-discrimination studies; format: functional; details: route intraperitoneal
[45] = test system: Rattus norvegicus; assay: Effect on behavioural activity in rat assessed as cocaine-induced lever response at 2.5 mg/kg, ip pretreated with cocaine for 30 mins by drug-discrimination studies; format: functional; details: route intraperitoneal
[46] = test system: Rattus norvegicus; assay: Effect on behavioural activity in rat assessed as cocaine-induced lever response at 50 mg/kg, po pretreated with cocaine for 90 mins by drug-discrimination studies; format: functional
[47] = test system: Rattus norvegicus; assay: Effect on behavioural activity in rat assessed as cocaine-induced lever response at 100 mg/kg, po pretreated with cocaine for 360 mins by drug-discrimination studies; format: functional
[48] = test system: Rattus norvegicus; assay: Effect on behavioural activity in ip dosed rat assessed as cocaine-induced lever response pretreated with cocaine by drug-discrimination studies; format: functional
[49] = test system: Rattus norvegicus; assay: Effect on behavioural activity in rat assessed as cocaine-induced lever response at 5 mg/kg, po pretreated with cocaine for 45 mins by drug-discrimination studies; format: functional

T2 sequence (P31645 whole entry): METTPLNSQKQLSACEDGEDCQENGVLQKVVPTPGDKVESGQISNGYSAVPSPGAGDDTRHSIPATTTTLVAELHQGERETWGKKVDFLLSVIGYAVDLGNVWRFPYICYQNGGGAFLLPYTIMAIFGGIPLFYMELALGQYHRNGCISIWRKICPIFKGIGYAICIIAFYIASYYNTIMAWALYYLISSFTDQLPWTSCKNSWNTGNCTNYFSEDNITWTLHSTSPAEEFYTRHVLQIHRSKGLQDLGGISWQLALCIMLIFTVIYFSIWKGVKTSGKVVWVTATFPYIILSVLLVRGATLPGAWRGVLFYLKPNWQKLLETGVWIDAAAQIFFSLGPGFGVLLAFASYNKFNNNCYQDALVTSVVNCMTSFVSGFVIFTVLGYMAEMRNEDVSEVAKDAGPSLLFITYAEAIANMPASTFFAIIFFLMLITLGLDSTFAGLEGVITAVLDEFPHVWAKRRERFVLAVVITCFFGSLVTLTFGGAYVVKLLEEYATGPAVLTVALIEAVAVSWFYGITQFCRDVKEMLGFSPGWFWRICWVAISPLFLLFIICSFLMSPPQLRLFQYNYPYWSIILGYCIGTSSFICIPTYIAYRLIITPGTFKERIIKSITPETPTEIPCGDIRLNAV
T1 sequence (P23975 whole entry): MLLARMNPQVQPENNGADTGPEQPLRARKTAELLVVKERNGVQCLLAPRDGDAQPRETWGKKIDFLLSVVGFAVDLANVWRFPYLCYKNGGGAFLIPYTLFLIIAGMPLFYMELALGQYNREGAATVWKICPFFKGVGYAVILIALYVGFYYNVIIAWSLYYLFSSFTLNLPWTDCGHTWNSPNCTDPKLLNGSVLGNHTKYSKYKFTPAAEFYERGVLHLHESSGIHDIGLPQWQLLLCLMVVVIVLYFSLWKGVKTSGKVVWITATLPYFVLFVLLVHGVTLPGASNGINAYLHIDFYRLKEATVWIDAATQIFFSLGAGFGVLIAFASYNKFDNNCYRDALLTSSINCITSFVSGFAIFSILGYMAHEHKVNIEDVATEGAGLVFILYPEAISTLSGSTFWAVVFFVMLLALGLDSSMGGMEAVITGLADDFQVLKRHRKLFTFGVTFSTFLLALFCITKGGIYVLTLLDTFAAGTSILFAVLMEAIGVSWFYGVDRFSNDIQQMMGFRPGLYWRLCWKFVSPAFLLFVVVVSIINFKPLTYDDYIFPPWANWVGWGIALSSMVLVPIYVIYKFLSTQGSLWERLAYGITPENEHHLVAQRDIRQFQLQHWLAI
T3 sequence (Q01959 whole entry): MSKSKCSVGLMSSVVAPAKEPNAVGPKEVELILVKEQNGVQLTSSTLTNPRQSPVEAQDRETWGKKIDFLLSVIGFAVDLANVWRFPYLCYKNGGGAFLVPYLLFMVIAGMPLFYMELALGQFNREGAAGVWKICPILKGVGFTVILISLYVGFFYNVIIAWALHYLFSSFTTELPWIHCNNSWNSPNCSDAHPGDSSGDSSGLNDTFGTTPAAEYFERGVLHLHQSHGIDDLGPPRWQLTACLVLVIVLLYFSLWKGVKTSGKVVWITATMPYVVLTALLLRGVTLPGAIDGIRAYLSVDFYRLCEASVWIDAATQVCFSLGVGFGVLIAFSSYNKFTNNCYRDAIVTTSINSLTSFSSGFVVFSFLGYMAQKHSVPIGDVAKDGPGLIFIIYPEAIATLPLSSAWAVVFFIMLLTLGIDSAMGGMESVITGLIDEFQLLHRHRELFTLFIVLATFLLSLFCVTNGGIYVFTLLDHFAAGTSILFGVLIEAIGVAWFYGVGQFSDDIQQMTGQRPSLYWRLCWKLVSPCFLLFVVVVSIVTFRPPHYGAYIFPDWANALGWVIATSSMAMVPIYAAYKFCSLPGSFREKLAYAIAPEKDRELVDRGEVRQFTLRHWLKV

SMILES: CC(C(=O)c1cccc(Cl)c1)N1CCCCC1 (centres undefined)
- Activity [1]: 33.7%
- Activity [2]: 45%
- ED50 [3]: 34.7 mg/kg
- Activity [4]: 32.7%
- Activity [5]: 7%
- Time [6]: 30 min
- Time to peak locomotor stimulation [7]: 320 min
- Activity [8]: 16.5%

SMILES: CC(C)(C)NC(CCC1CCCCC1)C(=O)c1cccc(Cl)c1 (centres undefined)
- Activity [9]: 0.7%
- pIC50 [10]: < 5.00
- Activity [2]: 33%
- pKi [11]: 5.42
- pIC50 [12]: < 5.00
- ED50 [3]: 14.1 mg/kg
- Activity [13]: 69.6%
- pKi [14]: 5.77
- Activity [15]: 0.2%
- Time [6]: 160 min
- pIC50 [16]: < 5.00
- Time to peak locomotor stimulation [7]: 60 min
- Activity [17]: Toxic
- pKi [18]: 5.21

SMILES: CC(NC(C)(C)C)C(=O)c1ccc(Cl)c(Cl)c1 (centres undefined)
- Activity [2]: 61%
- pIC50 [12]: < 5.00
- ED50 [3]: 26.9 mg/kg
- Activity [19]: 16.7%
- Time [6]: 140 min
- Activity [20]: 22.4%
- Time to peak locomotor stimulation [7]: 270 min

SMILES: CC(NC(C)(C)C)C(=O)c1cc(F)cc(F)c1 (centres undefined)
- ED50 [21]: 41.5 mg/kg
- Activity [22]: 25%
- Activity [23]: 16.7%
- Activity [24]: 0%
- Activity [25]: 0%
- Activity [26]: 0%
- Activity [2]: 84%
- Activity [27]: 0%
- Activity [28]: 0%
- Activity [29]: 7%
- Activity [30]: 0%
- Activity [31]: 84%
- Activity [32]: 20%
- Activity [33]: 3%
- Activity [34]: 17%
- pKi [11]: < 5.00
- ED50 [3]: 35 mg/kg
- Activity [35]: 0%
- Activity [36]: 0%
- Activity [37]: 7%
- Activity [38]: 20%
- Activity [39]: 67%
- Activity [40]: 4%
- Activity [41]: 18%
- Time [6]: 280 min
- Activity [42]: 33%
- Activity [43]: 0%
- Time to peak locomotor stimulation [7]: 0 min
- Activity [44]: 83.3%
- Activity [45]: 0%
- pKi [18]: < 5.00
- Activity [46]: 58%
- Activity [47]: 0%
- ED50 [48]: 7.8 mg/kg
- Activity [49]: 31%

Source: ChEMBL document CHEMBL1156106 (J Med Chem, 2009)
